The NIST ThermoML archive (doi:10.1016/j.fluid.2012.07.027)
Numbers after ± are expanded uncertainties.

Conditions: Liquid, Ebulliometric method (Recirculating still)

## CCCCCOCCOCCOCCCCC [1-(2-(2-(pentyloxy)ethoxy)ethoxy)pentane]
427.5 K
  vapor or sublimation pressure: 2 ± 0.03 kPa
437.5 K
  vapor or sublimation pressure: 3 ± 0.03 kPa
444.6 K
  vapor or sublimation pressure: 4 ± 0.04 kPa
450.3 K
  vapor or sublimation pressure: 5 ± 0.05 kPa
455.1 K
  vapor or sublimation pressure: 6 ± 0.05 kPa
459.3 K
  vapor or sublimation pressure: 7 ± 0.06 kPa
461.2 K
  vapor or sublimation pressure: 7.5 ± 0.06 kPa
463 K
  vapor or sublimation pressure: 8 ± 0.07 kPa
466.2 K
  vapor or sublimation pressure: 9 ± 0.07 kPa
469.1 K
  vapor or sublimation pressure: 10 ± 0.08 kPa
471.7 K
  vapor or sublimation pressure: 11 ± 0.09 kPa
474.1 K
  vapor or sublimation pressure: 12 ± 0.09 kPa
476.3 K
  vapor or sublimation pressure: 13 ± 0.1 kPa
478.6 K
  vapor or sublimation pressure: 14 ± 0.1 kPa
480.7 K
  vapor or sublimation pressure: 15 ± 0.12 kPa
488.8 K
  vapor or sublimation pressure: 20 ± 0.14 kPa
495.7 K
  vapor or sublimation pressure: 25 ± 0.15 kPa
